Source: the NIST ThermoML archive (doi:10.1016/j.fluid.2017.07.002)
Where “and” joins values, the source holds several entries; their conditions need not be identical. Equal entries are not always repeated. ± gives the expanded uncertainty stated by the source. Blank lines part the entries; values can stand above or below the compound they belong to.

Details: Liquid, Closed cell (Static) method

Compound: C=C(F)C(F)(F)F [2,3,3,3-tetrafluoro-1-propene]
vapor or sublimation pressure (193.26 K): 5.46 ± 0.38 kPa
vapor or sublimation pressure (193.3 K): 5.69 ± 0.38 kPa
vapor or sublimation pressure (223 K): 37.74 ± 0.42 kPa
vapor or sublimation pressure (223.08 K): 37.41 ± 1.1 kPa
vapor or sublimation pressure (223.11 K): 37.48 ± 1.1 kPa
vapor or sublimation pressure (233.02 K): 61.64 ± 0.61 kPa
vapor or sublimation pressure (233.04 K): 62.24 ± 1.3 kPa
vapor or sublimation pressure (272.69 K): 310.8 ± 1.5 kPa
vapor or sublimation pressure (272.75 K): 310.85 ± 1.5 kPa and 310.76 ± 1.5 kPa
vapor or sublimation pressure (272.78 K): 311.18 ± 1.5 kPa
vapor or sublimation pressure (272.8 K): 311.8 ± 1.5 kPa
vapor or sublimation pressure (272.81 K): 311.46 ± 1.5 kPa

vapor or sublimation pressure (173.63 K): 53.57 ± 0.85 kPa
vapor or sublimation pressure (177.24 K): 66.42 ± 1.1 kPa
vapor or sublimation pressure (183.28 K): 94.31 ± 1.1 kPa
vapor or sublimation pressure (228.82 K): 673.93 ± 3.5 kPa
Compound: CC [ethane]

vapor or sublimation pressure (223.21 K): 53.1 ± 1.9 kPa
vapor or sublimation pressure (272.76 K): 408.18 ± 2 kPa
Compound: FC(F)(F)C(F)(F)C(F)(F)F [octafluoropropane]

Compound: FC(F)(F)F [tetrafluoromethane]
vapor or sublimation pressure (153.23 K): 171.92 ± 5.7 kPa
vapor or sublimation pressure (193.43 K): 1205.3 ± 6.8 kPa

vapor or sublimation pressure (173.86 K): 34.35 ± 0.58 kPa
vapor or sublimation pressure (177.11 K): 41.46 ± 0.77 kPa
vapor or sublimation pressure (183.19 K): 62.33 ± 0.9 kPa
vapor or sublimation pressure (183.2 K): 62.29 ± 0.92 kPa
vapor or sublimation pressure (193.19 K): 113.55 ± 3.3 kPa
vapor or sublimation pressure (228.83 K): 600.35 ± 3.2 kPa
vapor or sublimation pressure (233.16 K): 707.03 ± 6.9 kPa
vapor or sublimation pressure (273.25 K): 2502.8 ± 13 kPa
Compound: FC(F)F [trifluoromethane]
